As a reminder, the IC50 is the concentration at which inhibition is half-maximal.

In test [1] the test system is HepG2. Put plainly: CCK-8 antiproliferative assay, HepG2. The settings on record: Homo sapiens, HepG2; CCK-8, 48 h, mean ± SD of three experiments; read-out: IC50 HepG2. Type of test: cell-based. Here is the method:
(§1) After synthesis and characterization, the isolongifolenone bicyclocaprolactam derivatives were evaluated for their in vitro antiproliferative activity against three cancer cell lines (MCF-7, HepG2, A549) using a CCK-8 assay. […] In general, the antiproliferative activities of most of these compounds were similar, irrespective of whether electron-withdrawing or electron-donating substituents were introduced in the phenoxy ring.
(§2) Three cancer cell lines (human breast adenocarcinoma cells MCF-7, human lung adenocarcinoma epithelial cells A549, and human hepatocellular carcinoma cells HepG2) were obtained from the Cell Bank of the Chinese Academy of Sciences (Shanghai, China). LO2 human normal liver cells were also purchased from STEM RECELL (Beijing, China, STM-CL-5770). The anti-proliferation activity of compounds was tested on three cancer cell lines. The cytotoxicity of compounds as tested on normal cell line (human normal liver cells LO2). Cells were seeded at a density of 5000 cells per well in 96-well plates. Natural product piperlongumine was used as the positive control. All experiments were performed in triplicate. Three cancer cell lines were cultured in High DMEM medium or RIPM 1640 containing 10% FBS (Sijiqing, Hangzhou, China) and 1% antibiotics at 37 °C in a 5% CO2 incubator. The experimental cells were seeded in a 96-well plate at 5000 cells per well and incubated for 24 h. The old medium was replaced with experimental medium, and the cells were cultured for 48 h. Afterward, 10 µL of CCK-8 solution was added to each well, and the cells were incubated for 3 h. The absorbance at 450 nm was measured using a microplate reader.
(In general: Formazan colour is commonly taken as a measure of viable cells.)

For test [2], the system named is MCF-7 cells. Put plainly: Autophagy assay using transmission electron microscopy. Type of test: cell-based, human. The settings on record: 24 h. Here is the method: To investigate whether E10 induced autophagy in MCF-7 cells, we performed Monodansylcadaverine (MDC) staining, transmission electron microscopy (TEM), and Western blot analysis to evaluate autophagy-related markers. MDC is a fluorescent probe commonly used to detect the formation of autophagic vacuoles, as it specifically labels autophagosomes.
MCF-7 cells were treated with E10 for 24 h. Cells were washed twice with pre-cold PBS, fixed in 2% glutaraldehyde at 4 °C for 2 h. Then, the sample was post-fixed in 2% osmium tetroxide for 1 h at 4 °C in the dark. Samples were dehydrated through a graded ethanol series, infiltrated and embedded in Spurr’s resin, and polymerized at 60 °C overnight. Ultrathin sections (~70–90 nm) were cut on an ultramicrotome, mounted on copper grids, counterstained with uranyl acetate and lead citrate, and examined by transmission electron microscopy (JEM-100CX; JEOL, Tokyo, Japan) at the indicated magnifications.

Test [3] has as its system MCF-7 xenograft. Put plainly: Zebrafish MCF-7 xenograft model. Type of test: in vivo. An excerpt: Zebrafish have become a well-established model for both anticancer drug discovery and toxicity evaluation. This animal model affords several unique advantages, including rapid development, optical transparency, and genetic conservation with humans. These features make zebrafish particularly suitable for high-throughput in vivo screening and mechanistic studies in oncology research. Tumor burden in zebrafish xenografts is commonly quantified from Dil/DiI-labeled fluorescence area or integrated intensity, which correlates with cell number and treatment response. To assess the in vivo antitumor efficacy of compound E10, we established a zebrafish xenograft model. Briefly, CM-Dil-labeled MCF-7 cells (showing red fluorescence) were microinjected into the yolk sacs of zebrafish embryos. The xenografted zebrafish were then randomly assigned into five groups: three E10-treatment groups (0.5 µg/mL, 1.0 µg/mL, and 2.0 µg/mL), a Doxorubicin (Dox) positive control group, and a PBS negative control group.
All experimental procedures were approved by ACUC of Shandong Academy of Sciences (Animal Care and Use Committee). Wild-type AB of zebrafish were obtained from Biology Institute, Qilu University of Technology. The embryos were incubated in special embryonic medium (0.17 mM KCl, 5.0 mM NaCl, 0.4 mM CaCl2, and 0.16 mM MgSO4) at 28 °C. 48 h-old zebrafish embryos were microinjected with CM-Dil labelled MCF-7 cells under stereomicroscopy. After injection, zebrafish embryos with the same injection spot were randomly planted on a six-well plate. These xenograft zebrafish were sorted into four groups of about 15–20 zebrafish each and treated with 0.5, 1.0, 2.0 μg/mL of compound E10 for 48 h, 1.0 μM doxorubicin as a positive control group. After treatment, the fluorescence intensity of living cells was examined with laser confocal microscopy (Olympus, Tokyo, Japan).

For test [4], the system named is MCF-7 cells. Put plainly: Annexin V/PI apoptosis assay by flow cytometry. Type of test: cell-based, human. Here is the method: The ability of drugs to induce cancer cell apoptosis is a key indicator of their chemotherapeutic potential. […] To examine the apoptotic effects of E10, an Annexin V-FITC dual-staining assay (with flow cytometric analysis) was performed. As shown in Figure 3A (also Figure 3C), treatment with increasing concentrations of E10 induced a marked elevation in apoptotic cell populations.
Autophagy has bidirectional regulation effects on cell survival. To confirm the role of autophagy in E10-induced cell death, 3-MA was used as an autophagy blocker.
MCF-7 cells were seeded at a density of 6 × 10^5 cells per well in 12-well plates and incubated in a 37 °C, 5% CO2 incubator for 24 h. After treatment with different concentrations of compound E10, the cells were washed with PBS two times, collected by trypsin enzymic digestion and centrifugation, and the collected cells were subsequently stained with 5 µL Annexin V-APC (YSRIBIO-C1084) and 5 µL PI for 10 min in the dark conditions. The cell apoptosis was measured with the flow cytometry (BD), and the data were analyzed by flowjo 10.6 software.
On the technique in general: Flow cytometry measures light scatter and fluorescence of single cells or particles in a stream.

The subject of test [5] is MCF-7. Put plainly: CCK-8 antiproliferative assay, MCF-7. Type of test: cell-based. The conditions noted are these: Homo sapiens, MCF7; CCK-8, 48 h, mean ± SD of three experiments; read-out: IC50 MCF-7. The method, then:
as §1, §2

Test [6] concerns MCF-7 cells. Put plainly: MMP assay (JC-1, flow cytometry). Type of test: cell-based, human. The settings on record: 24 h. The method, then:
If intracellular ROS levels rise above a certain threshold, the mitochondria may become damaged. […] In these experiments, MCF-7 cells were incubated with E10 for 24 h, and mitochondrial membrane potential (MMP) was then evaluated by flow cytometry using JC-1 as an indicator. […] These changes in the red/green fluorescence ratio are indicative of mitochondrial depolarization, a decrease in mitochondrial function, and potentially damage to mitochondria.
MCF-7 cells were treated with different concentrations of compound E10 for 24 h. After that, the cells were collected and stained with JC-1 (Yeasen, Shanghai, China, 40706ES60) for 15 min. The cell samples were detected by flow cytometry (BD) and the data were analyzed by flowjo 10.6 software.

Where [7] appears, read: Figure 6A, E10 or E10 + 3MA, 24 h.

On to `CC1(C)C2=CC(=O)N(C(=O)C=Cc3cccc(C(F)(F)F)c3)CC(C)(C)C23CCC1C3` (centres unmarked) [E10, 5,5,9,9-Tetramethyl-3-(3-(3-(trifluoromethyl)phenyl)acryloyl)-4,5,6,7,8,9-hexahydro-5a,8-methanobenzo[d]azepin-2(3H)-one], for which, in test [1], the IC50 was 1360 ± 180 nM. For the same compound, the “TEM, autophagic vesicles” value in test [2] is reported as “presence of membrane-bound autophagic vesicles”. Also, the “inhibition rate (decrease in fluorescence)” value in test [3] (2.0 µg/mL E10, 48 h) came to 50.0%. Further, the “fluorescence intensity of xenograft” value in test [3] (48 h, compared with PBS control, Dox 1.0 μM) is recorded as “notable reduction in fluorescence intensity”. The apoptosis rate in test [4] (E10 0.5 µM, 24 h) is given as 7.78%. Moreover, the apoptosis rate in test [4] (E10 1.0 µM, 24 h) is on record as 19.53%. This compound showed an apoptosis rate in test [4] (E10 2.0 µM, 24 h) of 24.93%. Besides, in test [4] (setting [7]), the Q1 necrotic cells turned out to be 15.9, the “Q2 late apoptotic cells” value is given as 9.62, the “Q3 early apoptotic cells” value was determined as 0.47 and the Q4 viable cells is 74.0. In addition, the “cell apoptosis with or without autophagy blocker 3-MA” value in test [4] (Figure 6A, in comparison with control) is “significantly increased”. In addition, the IC50 in test [5] worked out at 320 ± 50 nM. The “mitochondrial membrane potential” value in test [6] is recorded as “concentration-dependent reduction in MMP”.

The values are drawn from paper PMC12526212, “Novel Isolongifolenone-Based Caprolactam Derivatives as Potential Anticancer Agents via the p53/mTOR/Autophagy Pathway” (Molecules, 2025).
